Test results taken from patent US11046686B2, “Thiadiazole IRAK4 compounds” (Gilead Sciences, Inc., priority 2018, dated 2021).

tested on: TNFα; experiment: IRAK4 Monocyte TNFα Cell Based Assay; parameters: species or system human; conditions: Homo sapiens, Monocyte, human monocytes, LPS stimulated; compounds 1-32; read-out: EC50 TNF
Description: IRAK4 Monocyte TNFα Cell Based Assay Procedure:
The cell suspension was then plated at a density of 5,000 cells/well onto black 384 well Greiner clear bottom plates. Plates were pre-spotted with test compounds and serially diluted in DMSO where 40 nL/well were delivered using the Echo 550 acoustic liquid dispenser (Labcyte®) for a final DMSO concentration of 0.1%. Plated cells were treated with compound for 1 hour at 37° C. Cells were then stimulated with 50 pg/ml of LPS (Sigma) excluding outside columns of plate used for unstimulated cell control wells. Cells were incubated for an additional 4 hours at 37° C. Cells were then spun out of the media and 5 μl of sample were taken and analyzed for total TNFα content using the TR-FRET Human TNFα detection system (CisBio). This system utilizes two labeled antibodies (cryptate and XL665) that bind to two different epitopes of the TNFα molecule and produce FRET signal proportional to the concentration of TNFα in the sample. Detection antibodies are mixed 50:50 and 5 μL were dispensed into each well. Plates were covered with clear seals and incubated at room temp overnight. […] Percent of control was calculated as follows: % Control=100×(Ratiosample−Ratio0% stimulation)/(Ratio100% Stimulation−Ratio0% Stimulation) where unstimulated cells (0% stimulation) were the negative control and stimulated cells (100% stimulation) were used as the positive control.

EC50 [nM]	SMILES
14	CC(=O)N[C@H]1CC[C@H](c2nnc(-c3cnc(-c4ccc5cc(C#N)cnn45)cc3NC(C)C)s2)CC1 [Example 24, N-((1r,4r)-4-(5-(6-(3-cyanopyrrolo[1,2-b]pyridazin-7-yl)-4-(isopropylamino)pyridin-3-yl)-1,3,4-thiadiazol-2-yl)cyclohexyl)acetamide]

same assay, conditions: Homo sapiens, Monocyte, read-out: EC50 MONO TNF HTRF

SMILES	EC50 [nM]
CN1CCC(C(=O)N2C3CC2CN(c2nnc(-c4cnc(-c5ccc6cc(C#N)cnn56)cc4NC4(C)COC4)s2)C3)CC1 [Example 118, 7-(4((3-methyloxetan-3-yl)amino)-5-(5-(6-(1-methylpiperidine-4-carbonyl)-3,6-diazabicyclo[3.1.1]heptan-3-yl)-1,3,4-thiadiazol-2-yl)pyridin-2-yl)pyrrolo[1,2-b]pyridazine-3-carbonitrile]	29
CC(=O)N1C2CC1CN(c1nnc(-c3cnc(-c4ccc5cc(C#N)cnn45)cc3NC3(C)COC3)s1)C2 [Example 111, 7-(5-(5-(6-acetyl-3,6-diazabicyclo[3.1.1]heptan-3-yl)-1,3,4-thiadiazol-2-yl)-4-((3-methyloxetan-3-yl)amino)pyridin-2-yl)pyrrolo[1,2-b]pyridazine-3-carbonitrile]	8.8

same assay, conditions: human monocytes; second part of Table 2, compounds 33-343; unit inferred; read-out: EC50 MONO TNF HTRF

SMILES	EC50 [nM]
CC(=O)N1CC2CCC(C1)N2c1nnc(-c2cnc(-c3ccc4cc(C#N)cnn34)cc2NC(C)C)s1 [Compound 260, 7-(5-(5-(3-acety1-3,8-diazabicyclo[3.2.1]octan-8-yl)-1,3,4-thiadiazol-2-yl)-4-(isopropylamino)pyridin-2-yl)pyrrolo[1,2-b]pyridazine-3-carbonitrile]	15.8
CC(=O)N[C@@H]1C[C@H]2COC[C@@H](C1)N2c1nnc(-c2cnc(-c3ccc4cc(C#N)cnn34)cc2NC(C)C)s1 [Example 209, N-((1R,5S,7r)-9-(5-(6-(3-cyanopyrrolo[1,2-b]pyridazin-7-yl)-4-(isopropylamino)pyridin-3-yl)-1,3,4-thiadiazol-2-yl)-3-oxa-9-azabicyclo[3.3.1]nonan-7-yl)acetamide]	9.6
CC(=O)N[C@@H]1CCN(c2nnc(-c3cnc(-c4ccc5cc(C#N)cnn45)cc3NC(C)C)s2)C1 [Compound 330]	47.1
CC(=O)N[C@]1(C)[C@@H]2CC[C@H]1CN(c1nnc(-c3cnc(-c4ccc5cc(C#N)cnn45)cc3NC(C)C)s1)C2 [Example 155]	7.4
CC(=O)NC1CN(c2nnc(-c3cnc(-c4ccc5cc(C#N)cnn45)cc3NC(C)C)s2)CC1(F)F (stereo not drawn) [Compound 327]	10.2
COC(=O)N[C@H]1CCN(C(=O)c2nnc(-c3cnc(-c4ccc5cc(C#N)cnn45)cc3NC(C)C)s2)C1 [Example 43, methyl (S)-(1-(5-(6-(3-cyanopyrrolo[1,2-b]pyridazin-7-yl)-4-(isopropylamino)pyridin-3-yl)-1,3,4-thiadiazole-2-carbonyl)pyrrolidin-3-yl)carbarnate]	21.9
CC(C)Nc1cc(-c2ccc3cc(C#N)cnn23)ncc1-c1nnc(C(=O)N2CC[C@@H](NC(=O)C3CC3)C2)s1 [Example 47]	5680
CC(=O)NC[C@H]1C[C@@H](c2nnc(-c3cnc(-c4ccc5cc(C#N)cnn45)cc3NC(C)C)s2)C1 [Example 289, N-(((1s,3s)-3-(5-(6-(3-cyanopyrrolo[1,2-b]pyridazin-7-yl)-4-(isopropylamino)pyridin-3-yl)-1,3,4-thiadiazol-2-yl)cyclobutyl)methyl)acetamide]	21.4
CC(C)Nc1cc(-c2ccc3cc(C#N)cnn23)ncc1-c1nnc(C(=O)N[C@H]2C[C@@H](O)C2)s1 [Example 215, 5-(6-(3-cyanopyrrolo[1,2-b]pyridazin-7-yl)-4-(isopropylamino)pyridin-3-yl)-N-((1s,3s)-3-hydroxycyclobutyl)-1,3,4-thiadiazole-2-carboxamide]	3100
CC(C)Nc1cc(-c2ccc3cc(C#N)cnn23)ncc1-c1nnc(CC#N)s1 [Compound 321]	53.5
CC(C)Nc1cc(-c2ccc3cc(C#N)cnn23)ncc1-c1nnc([C@H]2CC[C@H](NC(=O)CN=S(C)(C)=O)CC2)s1 [Compound 339]	9.1
CNc1cc(-c2ccc3cc(C#N)cnn23)ncc1-c1nnc(N2C[C@H]3CC[C@@H](C2)[C@@H]3NC(C)=O)s1 [Example 292, N-((1R,5S,8s)-3-(5-(6-(3-cyanopyrrolo[1,2-b]pyridazin-7-yl)-4-(methylamino)pyridin-3-yl)-1,3,4-thiadiazol-2-yl)-3-azabicyclo[3.2.1]octan-8-yl)acetamide]	6.7
CC1(Nc2cc(-c3ccc4cc(C#N)cnn34)ncc2-c2nnc(N3CC4CC(C3)N4C(=O)CN=S(C)(C)=O)s2)COC1 [Example 113, 7-(5-(5-(6-(2-((dimethyl(oxo)-16-sulfanylidene)amino)acetyl)-3,6-diazabicyclo[3.1.1]heptan-3-yl)-1,3,4-thiadiazol-2-yl)-4-((3-methyloxetan-3-yl)amino)pyridin-2-yl)pyrrolo[1,2-b]pyridazine-3-carbonitrile]	47.4
CC(=O)N[C@@H]1[C@@H]2CC[C@H]1CN(c1nnc(-c3cnc(-c4ccc5cc(C#N)cnn45)cc3N[C@H](C)C#N)s1)C2 [Example 53, N-((1R,5S,8S)-3-(5-(4-(((R)-1-cyanoethyl)amino)-6-(3-cyanopyrrolo[1,2-b]pyridazin-7-yl)pyridin-3-yl)-1,3,4-thiadiazol-2-yl)-3-azabicyclo[3.2.1]octan-8-yl)acetamide]	0.6
CC(C)Nc1cc(-c2ccc3cc(C#N)cnn23)ncc1-c1nnc(C(=O)N[C@H]2C[C@@](C)(O)C2)s1 [Example 218, 5-(6-(3-cyanopyrrolo[1,2-b]pyridazin-7-yl)-4-(isopropylamino)pyridin-3-yl)-N-((1s,3s)-3-hydroxy-3-methylcyclobutyl)-1,3,4-thiadiazole-2-carboxamide]	858

More lines, now with the values ahead:

EC50 [nM]	SMILES
2.1	CC(C)(O)C(=O)N[C@@H]1[C@@H]2CC[C@H]1CN(c1nnc(-c3cnc(-c4ccc5cc(C#N)cnn45)cc3NC3COC3)s1)C2 [Example 87, N-((1R,5S,8s)-3-(5-(6-(3-cyanopyrrolo[1,2-b]pyridazin-7-yl)-4-(oxetan-3-ylamino)pyridin-3-yl)-1,3,4-thiadiazol-2-yl)-3-azabicyclo[3.2.1]octan-8-yl)-2-hydroxy-2-methylpropanamide]
1.8	CC(=O)N[C@]1(C)[C@@H]2CC[C@H]1CN(c1nnc(-c3cnc(-c4ccc5cc(C#N)cnn45)cc3N[C@H](C)C#N)s1)C2 [Example 157, N-((1R,5S,8S)-3-(5-(4-((R)-1-cyanoethypamino)-6-(3-cyanopyrrolo[1,2-b]pyridazin-7-yl)pyridin-3-yl)-1,3,4-thiadiazol-2-yl)-8-methyl-3-azabicyclo[3.2.1]octan-8-yl)acetamide]
3.2	CC(C)Nc1cc(-c2ccc3cc(C#N)cnn23)ncc1-c1nnc(N2C[C@H]3CC[C@@H](C2)[C@@H]3NC(=O)CN=S(C)(C)=O)s1 [Example 98, N-((1R,5S,8s)-3-(5-(6-(3-cyanopyrrolo[1,2-b]pyridazin-7-yl)-4-(isopropylamino)pyridin-3-yl)-1,3,4-thiadiazol-2-yl)-3-azabicyclo[3.2.1]octan-8-yl)-2-((dimethyl(oxo)-16-sulfanylidene)amino)acetamide]
5	CC(C)Nc1cc(-c2ccc3cc(C#N)cnn23)ncc1-c1nnc(N2C[C@H]3CC[C@@H](C2)[C@@H]3NC(=O)[C@H]2C[C@](C)(O)C2)s1 [Example 92, (1r,3R)-N-((1R,5S,8s)-3-(5-(6-(3-cyanopyrrolo[1,2-b]pyridazin-7-yl)-4-(isopropylamino)pyridin-3-yl)-1,3,4-thiadiazol-2-yl)-3-azabicyclo[3.2.1]octan-8-yl)-3-hydroxy-3-methylcyclobutane-1-carboxamide]
4.1	CC(C)Nc1cc(-c2ccc3cc(C#N)cnn23)ncc1-c1nnc(N2C[C@H]3CC[C@@H](C2)[C@@H]3NC(=O)C2(C)CCOCC2)s1 [Example 95, N-((1R,5S,8s)-3-(5-(6-(3-cyanopyrrolo[1,2-b]pyridazin-7-yl)-4-(isopropylamino)pyridin-3-yl)-1,3,4-thiadiazol-2-yl)-3-azabicyclo[3.2.1]octan-8-yl)-4-methyltetrahydro-2H-pyran-4-carboxamide]
5.3	CC(=O)N(C)[C@@H]1[C@@H]2CC[C@H]1CN(c1nnc(-c3cnc(-c4ccc5cc(C#N)cnn45)cc3NC(C)C)s1)C2 [Example 300]
5.1	CC(=O)N[C@H]1CC[C@H](c2nnc(-c3cnc(-c4ccc5cc(C#N)cnn45)cc3NC3CCOCC3)s2)CC1 [Compound 255, N-((1r,4r)-4-(5-(6-(3-cyanopyrrolo[1,2-b]pyridazin-7-yl)-4-((tetrahydro-2H-pyran-4-yl)amino)pyridin-3-yl)-1,3,4-thiadiazol-2-yl)cyclohexyl)acetamide]
6.4	CC(=O)N[C@@H]1[C@@H]2C[C@H]1CN(c1nnc(-c3cnc(-c4ccc5cc(C#N)cnn45)cc3NC3COC3)s1)C2 [Example 179, N-((1R,5S,6s)-3-(5-(6-(3-cyanopyrrolo[1,2-b]pyridazin-7-yl)-4-(oxetan-3-ylamino)pyridin-3-yl)-1,3,4-thiadiazol-2-yl)-3-azabicyclo[3.1.1]heptan-6-yl)acetamide]
6.4	CNC(=O)N[C@H]1CC[C@H](c2nnc(-c3cnc(-c4ccc5cc(C#N)cnn45)cc3NC(C)C)s2)CC1 [Example 140, 1-((1r,4r)-4-(5-(6-(3-cyanopyrrolo[1,2-b]pyridazin-7-yl)-4-(isopropylamino)pyridin-3-yl)-1,3,4-thiadiazol-2-yl)cyclohexyl)-3-methylurea]
